Columns and labels:
[1] = detection of radiolabelled compound in saliva; format: in vivo
Procedure: The anhydrous Form I 2-methyl-4-(4-methyl-1-piperazinyl)-10H-thieno-[2,3-b][1,5]benzodiazepine compound is effective over a wide dosage range, the actual dose administered being dependent on the condition being treated. For example, in the treatment of adult humans, dosages of from 0.25 to 30 mg, preferably from 1 to 20 mg, per day may be used. A once a day dosage is normally sufficient, although divided doses may be administered. For treatment of central nervous system disorders, a dose range of from 1 to 30 mg, preferably 2.5 to 20 mg per day is suitable.

catalepsy = experiment: induction of catalepsy; format: in vivo; settings: compared with doses required to block conditioned avoidance response
5-HT2B receptor = 5-HT2B receptor activity
[2] = tested on: apomorphine-induced hypothermia; experiment: apomorphine-induced hypothermia in mice; format: in vivo
From the text: (§1) The Form I olanzapine prepared by the process of this invention has useful central nervous system activity. […] For example, the anhydrous Form I compound has been assessed in a number of standard behavior tests predictive of antipsychotic activity. The claimed compound antagonised apomorphine-induced climbing behavior and hypothermia in mice. See Moore, N. A. et al Psychopharmacology 94 (2), 263-266 (1988).

[3] = tested on: conditioned avoidance response; experiment: conditioned avoidance response in rats; format: in vivo
[4] = tested on: apomorphine-induced climbing behavior; experiment: apomorphine-induced climbing behavior in mice; format: in vivo
From the text: as §1

[5] = stability of the anhydrous polymorph; format: physicochemical; settings: suitability for pharmaceutical formulations

SMILES | detection in saliva [1] | induction of catalepsy (catalepsy) | 5-HT2B receptor activity (5-HT2B receptor) | antagonism of apomorphine-induced hypothermia [2] | inhibition of conditioned avoidance response [3] | antagonism of apomorphine-induced climbing behavior [4] | stability of crystal form [5]
Cc1cc2c(s1)Nc1ccccc1N=C2N1CCN(C)CC1 [2-methyl-4-(4-methyl-1-piperazinyl)-10H-thieno-[2,3b][1,5]benzodiazepine] | can be detected in the saliva |  |  |  |  |  | 
Cc1cc2c(s1)Nc1ccccc1N=C2N1CCN(C)CC1 [anhydrous Form I olanzapine, 2-methyl-4-(4-methyl-1-piperazinyl)-10H-thieno[2,3-b][1,5]benzodiazepine] |  | induces cataleptsy only at higher doses | 5-HT2B receptor activity | antagonised | inhibits | antagonised | stable
Cc1cc2c(s1)Nc1ccccc1N=C2N1CCN(C)CC1 [anhydrous Form II 2-methyl-4-(4-methyl-1-piperazinyl)-10H-th] [2-methyl-4-(4-methyl-1-piperazinyl)-10H-thieno[2,3-b][1,5]benzodiazepine] |  |  |  |  |  |  | metastable

— US5637584A, “Solvate of olanzapine” (Eli Lilly and Company, priority 1995, dated 1997)
